Reference: patent US20190352664A1, “COMPOSITIONS AND METHODS FOR CONTROLLING GENE EXPRESSION” (priority 2017, published 2019)

System: Arabidopsis
Experiment: Ribo-seq and RNA-seq global translatome profiling (translational efficiency TE, mORF/uORF ribo-shift) upon elf18 treatment
Format: in vivo
Set-up: key to score (Ribo-shift): Up: ribo-shift up (i.e., increased mORF/uORF ratio); Down: ribo-shift down (i.e., decreased mORF/uORF ratio)
Settings: elf18 vs Mock; for score (Ribo-shift): shift of mORF/uORF ratio, per uORF; for score (TE change): translational efficiency fold change, listed as shows 5′ UTR of the transcript

Molecule	score (Ribo-shift)	score (TE change)
AT1G12580.1_1: uORF of AT1G12580.1; peptide SEQ ID NO: 1 (DNA ATGCAGCTTGCGATTTCATAG; listed as DNA, chemistry not fully specified)	Up	
AT1G19270.1_3: uORF of AT1G19270.1; peptide SEQ ID NO: 3 (DNA ATGAGCAGATAG; listed as DNA, chemistry not fully specified)	Down	
AT1G30330.1_1: uORF of AT1G30330.1; peptide SEQ ID NO: 4 (DNA ATGTTCTGCAACAGTTGA; listed as DNA, chemistry not fully specified)	Up	
AT1G30330.13: uORF of AT1G30330.1; peptide SEQ ID NO: 5 (DNA ATGAGTGGGGTGGATTAA; listed as DNA, chemistry not fully specified)	Down	
AT1G48300.1: 5′ UTR of transcript (DNA CGAGATGCGGCGAGGAGAAAGAGAAGGTTAAGGTT; listed as DNA, chemistry not fully specified)		TEup (448 had increased TEfc)
AT1G72390.1_1: uORF of AT1G72390.1; peptide SEQ ID NO: 9 (DNA ATGTTTATGAATTCTTCATTGCTCTATTCTTAG; listed as DNA, chemistry not fully specified)	Down	
AT2G34630.1_2: uORF of AT2G34630.1; peptide SEQ ID NO: 10 (DNA ATGAGCTGTCACTTCTTAGTAATAAGTTGA; listed as DNA, chemistry not fully specified)	Up	
AT2G42950.1_1: uORF of AT2G42950.1; peptide SEQ ID NO: 12 (DNA ATGATCTTACGTGAAATTGCAGCCTAA; listed as DNA, chemistry not fully specified)	Down	
AT2G47210.1_1: uORF of AT2G47210.1; peptide SEQ ID NO: 13 (DNA ATGATAGCTACCCAGTAA; listed as DNA, chemistry not fully specified)	Up	
AT3G02570.1_2: uORF of AT3G02570.1; peptide SEQ ID NO: 14 (DNA ATGCTTGAGATATTTTGTTTTTACCTCCGAGAAACGGATTTAGATTCGTAA; listed as DNA, chemistry not fully specified)	Down	
AT3G03070.1_1: uORF of AT3G03070.1; peptide SEQ ID NO: 15 (DNA ATGCGTTGTTTGGTACAGCTTCACGAACAATCTCTCTCTCGATAG; listed as DNA, chemistry not fully specified)	Down	
AT3G15030.1_2: uORF of AT3G15030.1; peptide SEQ ID NO: 16 (DNA ATGGGTTAG; listed as DNA, chemistry not fully specified)	Down	
AT3G18140.1_2: uORF of AT3G18140.1; peptide SEQ ID NO: 17 (DNA ATGGTTGGTTTAATATTTCAATCGGGATAA; listed as DNA, chemistry not fully specified)	Down	
AT3G56010.1_1: uORF of AT3G56010.1; peptide SEQ ID NO: 19 (DNA ATGCGTCGCTCTTAA; listed as DNA, chemistry not fully specified)	Up	
AT3G63340.1_1: uORF of AT3G63340.1; peptide SEQ ID NO: 20 (DNA ATGAAGCAATTGTTCCTTTCAAGCATGTTTACGAGCAAAAGAGTGAAAGGGTAG; listed as DNA, chemistry not fully specified)	Down	
AT4G11110.1_1: uORF of AT4G11110.1; peptide SEQ ID NO: 21 (DNA ATGATTGGCTTCTCACGATTCGATTTTTCCGGCTCCTGTTCTTAA; listed as DNA, chemistry not fully specified)	Up	
AT4G17840.1_4: uORF of AT4G17840.1; peptide SEQ ID NO: 22 (DNA ATGTTATAA; listed as DNA, chemistry not fully specified)	Up	
AT4G18570.1_1: uORF of AT4G18570.1; peptide SEQ ID NO: 23 (DNA ATGCTTTTAATTTCCATGCAAATCTCTCCTTTCTTCTCAAGTCATTTTTGA; listed as DNA, chemistry not fully specified)	Up	

Molecule	score (Ribo-shift)	score (TE change)
AT4G23740.1_1: uORF of AT4G23740.1; peptide SEQ ID NO: 24 (DNA ATGCCAAAAAATAAGAACAAAATTATATCCGTTGCTTGA; listed as DNA, chemistry not fully specified)	Up	
AT4G23740.1_2: uORF of AT4G23740.1; peptide SEQ ID NO: 25 (DNA ATGGCGGTTCTTCACATTATCTTCACTGCGTAA; listed as DNA, chemistry not fully specified)	Down	
AT4G26080.1_3: uORF of AT4G26080.1; peptide SEQ ID NO: 27 (DNA ATGTGTTTCTTCTTGTCTTCCTAG; listed as DNA, chemistry not fully specified)	Down	
AT4G32660.1_1: uORF of AT4G32660.1; peptide SEQ ID NO: 28 (DNA ATGTCGTCGCGGTTCGACCCCAAGGGATTTGGCCGGTAA; listed as DNA, chemistry not fully specified)	Down	
AT4G32800.1_1: uORF of AT4G32800.1; peptide SEQ ID NO: 29 (DNA ATGATAGAAACAAGAACTATCTTTTTATAA; listed as DNA, chemistry not fully specified)	Down	
AT4G34460.1_1: uORF of AT4G34460.1; peptide SEQ ID NO: 30 (DNA ATGAACCTTCTTCTCTTCTAG; listed as DNA, chemistry not fully specified)	Up	
AT4G37925.1_1: uORF of AT4G37925.1; peptide SEQ ID NO: 31 (DNA ATGGTTCTGTAA; listed as DNA, chemistry not fully specified)	Riboshift Down ATGGTTCTGTAA (SEQ ID	
AT4G38950.1_1: uORF of AT4G38950.1; peptide SEQ ID NO: 32 (DNA ATGTGCCCCAAAAGATAA; listed as DNA, chemistry not fully specified)	Down	
AT5G11790.1_1: uORF of AT5G11790.1; peptide SEQ ID NO: 33 (DNA ATGGAAAGATAA; listed as DNA, chemistry not fully specified)	Down	
AT5G14930.1_1: uORF of AT5G14930.1; peptide SEQ ID NO: 34 (DNA ATGGACTCTCGTTCTCAGACATTTATTTCTCTCAGTCTTACAATATAA; listed as DNA, chemistry not fully specified)	Down	
AT5G57460.1_1: uORF of AT5G57460.1; peptide SEQ ID NO: 37 (DNA ATGTTTCAATCTAACCATTGA; listed as DNA, chemistry not fully specified)	Up	
AT1700.1_1: uORF of AT1G16700.1; peptide SEQ ID NO: 2 (DNA ATGTTCTTGTGA; listed as DNA, chemistry not fully specified)	Down	
ATG48300.1_1: uORF of AT1G48300.1; peptide SEQ ID NO: 6 (DNA ATGCGGCGAGGAGAAAGAGAAGGTTAA; listed as DNA, chemistry not fully specified)	Up	
AT2G34630.1: 5′ UTR of transcript; geranyl diphosphate synthase 1 (nucleic acid) DNA: AAGCGAACAAGTCTTTGCCTCTTTGGTTTACTTTCCTCTGTTTTCGATCCATTTAGAAAATGTTATTCACGAGGAGTGTTGCTCGGATTTCTTCTAAGTTTCTGAGAAACCGTAGCTTCTATGGCTCCTCTCAATCTCTCGCCTCTCATCGGTTCGCAATCATTCCCGATCAGGGTCACTCTTGTTCTGACTCTCCACACAAGTAGGGTTACGTTTGCAGAACAACTTATTCATTGAAATCTCCGGTTTTTGGTGGATTTAGTCATCAACTCTATCACCAGAGTAGCTCCTTGGTTGAGGAGGAGCTTGACCCATTTTCGCTTGTTGCCGATGAGCTGTCACTTCTTAGTAATAAGTTGAGAGAG		TEup (448 had increased TEfc)
AT1G72390.1: 5′ UTR of transcript (nucleic acid) DNA: CCTTTCTCTTCCGATCGCATCTTCTTCAAAAATTTCCCACCTGTGTTTCACAAATTCCATGTTTATGAATTCTTCATTGCTCTATTCTTAGTCACCTTTGATTTCTCTCGCTTTCTATCCGATCCAATTGTTTGATGATCTTCTCTGTAACAAGCTCATAAGGTTTGAGCTTCATCTCTCTGGAGAGAATCC		TEup (448 had increased TEfc)
AT1G59990.1: 5′ UTR of transcript; DEA(D/H)-box RNA helicase family protein (nucleic acid) DNA: AGTGAGCTAATGAAGAGAGAGACTGAAACAGAGGTTTCTTACTTTCTTCTCTGTATCTCTCATATTTTGCTTAAACCCTAAAACCCTTTTTGGATTAGGTTTTCTCCAAATCTTATCCGCCGTGATAAAATCTGATTGCTTTTTTTCTTCATGAAAGTTTGATTTGTGAAACTCG		TEdown (389 genes displayed decreased TEfc (|z|≥1.5))
AT1G59700.1_1: uORF of AT1G59700.1; peptide SEQ ID NO: 7 (nucleic acid, listed as DNA, chemistry not fully specified) DNA: ATGATATGTCCGTTTAGAAACAGACAAAATAAGAAGAAGAAGAAAGAGTCGTGGAGGATTCTTCATTCTTCCTCATCCTCTTCTTCACCGATTCATTAG	Down	
AT1G59990.1_1: uORF of AT1G59990.1; peptide SEQ ID NO: 8 (nucleic acid, listed as DNA, chemistry not fully specified) DNA: ATGAAGAGAGAGACTGAAACAGAGGTTTCTTACTTTCTTCTCTGTATCTCTCATATTTTGCTTAAACCCTAA	Down	
